Experimental findings from patent US4029671A, “3-[(5-nitro-2-imidazolyl)pyrazol-5-yl]oxamic acid derivatives” (priority 1976, dated 1977) are described below.

≈ marks a conversion by molar mass, not a printed value. Where a name gives a salt, the structure may show the parent alone.

Test [1] concerns Bacteroides fragilis sp. fragilis 1451. The experiment in a line: Agar dilution susceptibility of anaerobic bacteria (Chart 1). The format is cell-based. The settings on record: agar dilution, 37° C., Bacteroides fragilis sp. fragilis 1451.
In the next test the test system is Peptococcus prevoti 1281. Described as above. The test is classed as cell-based. The following applies: for 24 Hr. MIC: agar dilution, 37° C. In general terms: Agar dilution tests growth on a series of plates holding different concentrations.
Test [2] has as its system Bacteroides vulgatis 1211. The description is as above. The format is cell-based. The following applies: agar dilution, 37° C., Bacteroides vulgatis 1211.
For test [3], the system named is Bacteroides fragilis sp. fragilis 2. The description is as above. The test is classed as cell-based. The following applies: Bacteroides fragilis, 24 h, agar dilution, 37° C.; Bacteroides fragilis sp. fragilis 2; read-out: 24 Hr. MIC.
For test [4], the system named is Bacteroides fragilis sp. fragilis 62. The description is as above. The test is classed as cell-based. The settings on record: agar dilution, 37° C., Bacteroides fragilis sp. fragilis 62; for MIC: Bacteroides fragilis, 24 h, read-out: 24 Hr. MIC.
The subject of test [5] is Clostridium perfringens 81. In words: microbe, parasite or virus in culture. The format is cell-based. The settings on record: for MIC: Clostridium perfringens, 81, 24 h, read-out: 24 Hr. MIC, agar dilution, 37° C.
Test [6] has as its system Bacteroides fragilis sp. fragilis 108. The experiment in a line: Agar dilution susceptibility of anaerobic bacteria (Chart 1). The format is cell-based. The settings on record: agar dilution, 37° C., Bacteroides fragilis sp. fragilis 108; for MIC: Bacteroides fragilis, 24 h, read-out: 24 Hr. MIC.
Test [7] has as its system Bacteroides fragilis sp. fragilis 111. Described as above. The following applies: agar dilution, 37° C., Bacteroides fragilis sp. fragilis 111; for MIC: Bacteroides fragilis, 24 h, read-out: 24 Hr. MIC. The format is cell-based.
Test [8] deals with Peptostreptococcus anaerobius 1428. The description is as above. The settings on record: agar dilution, 37° C., Peptostreptococcus anaerobius 1428. The test is classed as cell-based.
For test [9], the system named is Eubacterium aerofaciens 1235. The description is as above. The settings on record: agar dilution, 37° C., Eubacterium aerofaciens 1235. The test is classed as cell-based.
Test [10] deals with Bacteroides fragilis sp. fragilis 1470. The description is as above. The format is cell-based. The settings on record: agar dilution, 37° C., Bacteroides fragilis sp. fragilis 1470; for MIC: Bacteroides fragilis, 24 h, read-out: 24 Hr. MIC.
For test [11], the system named is Bacteroides fragilis sp. vulgatis 1563. The description is as above. The format is cell-based. The settings on record: agar dilution, 37° C., Bacteroides fragilis sp. vulgatis 1563.
Test [12] deals with Bacteroides fragilis sp. thetaiotaomicron 1900A. The test is described as above. The format is cell-based. The following applies: agar dilution, 37° C., Bacteroides fragilis sp. thetaiotaomicron 1900A.
The test system of test [13] is Bacteroides fragilis sp. fragilis 103. Described as above. The format is cell-based. The settings on record: agar dilution, 37° C., Bacteroides fragilis sp. fragilis 103; for MIC: Bacteroides fragilis, 24 h, read-out: 24 Hr. MIC.
For test [14], the system named is Bacteroides fragilis sp. fragilis 104. Described as above. The test is classed as cell-based. The settings on record: 24 h; agar dilution, 37° C.; Bacteroides fragilis sp. fragilis 104; read-out: 24 Hr. MIC.
Test [15] concerns Fusobacterium symbiosum 1470. The description is as above. The test is classed as cell-based. The settings on record: agar dilution, 37° C., Fusobacterium symbiosum 1470; for MIC: Fusobacterium, 1470, 24 h, read-out: 24 Hr. MIC.
Test [16] concerns Bacteroides fragilis sp. fragilis 1936B. Described as above. The test is classed as cell-based. The following applies: agar dilution, 37° C., Bacteroides fragilis sp. fragilis 1936B.
The test system of test [17] is Bacteroides fragilis sp. fragilis 110. The test is described as above. The following applies: agar dilution, 37° C., Bacteroides fragilis sp. fragilis 110; for MIC: Bacteroides fragilis, 24 h, read-out: 24 Hr. MIC. The test is classed as cell-based.
The subject of test [18] is Actinomyces israelii W855. Described as above. The format is cell-based. The settings on record: 24 h, agar dilution, 37° C., read-out: 24 Hr. MIC.
The subject of test [19] is Propionibacterium acnes 79. Described as above. The test is classed as cell-based. The following applies: agar dilution, 37° C., Propionibacterium acnes 79; for MIC: Cutibacterium acnes, 79, 24 h, read-out: 24 Hr. MIC.
Test [20] concerns Fusobacterium necrophorum 6054A. Described as above. The settings on record: agar dilution, 37° C., Fusobacterium necrophorum 6054A; for MIC: Fusobacterium necrophorum, 6054A, 24 h, read-out: 24 Hr. MIC. The format is cell-based.
Test [21] relates to Bacteroides fragilis sp. fragilis 107. The test is described as above. The format is cell-based. The following applies: Bacteroides fragilis, 24 h, agar dilution, 37° C.; Bacteroides fragilis sp. fragilis 107; read-out: 24 Hr. MIC.
In test [22] the test system is Peptococcus asaccharolyticus 1302. Described as above. The test is classed as cell-based. The settings on record: agar dilution, 37° C., Peptococcus asaccharolyticus 1302; for MIC: Peptoniphilus asaccharolyticus, 1302, 24 h, read-out: 24 Hr. MIC.
For test [23], the system named is Bacteroides fragilis sp. fragilis 113. Described as above. The test is classed as cell-based. The following applies: agar dilution, 37° C., Bacteroides fragilis sp. fragilis 113.
The subject of a further test is Salmonella typhimurium. The experiment in a line: Control of infections caused by Salmonella typhimurium in chickens (Chart 2). The test is classed as in vivo. The following applies: 60 mg./kg. subcutaneous, day-old chicks, 5 per group, 6 days observation; sodium salt. Here is the method: The efficacy of the novel compounds in the control of infections caused by Salmonella typhimurium in chickens was evaluated in the following manner. The test was carried out using day-old chicks weighing approximately 35 g. each. The chicks were divided into groups of 5 chicks per each dosage level. A portion of the chicks received the test compound which was suspended in 0.2 ml. of polyethylene glycol 200 and administered subcutaneously in the neck. […] All the chicks were challenged with a 1:200 dilution of a culture of the organism, 0.1 ml. of the dilution being injected into each chick in the leg intramuscularly. […] The test compounds are identified in the same manner as set forth in experiment 1. In the chart, column 1 lists the compounds tested; column 2, the dosage of test compound in mg./kg.; and column 3, the survival ratio.

The mark [24] stands for this setting: Bacteroides fragilis, 24 h, read-out: 24 Hr. MIC.

As to `CCC[C@@H]1C[C@@H](C(=O)N[C@@H]([C@H]2O[C@H](SC)[C@H](O)[C@@H](O)[C@H]2O)[C@H](C)Cl)N(C)C1` [C, clindamycin, reference compound], the MIC was 1 µg/mL (≈ 2.35 µM) in test [1] (setting [24]); 32 µg/mL (≈ 75.3 µM) in the test on Peptococcus prevoti 1281 (24 h, read-out: 24 Hr. MIC, agar dilution, 37° C.); at most 0.5 µg/mL in [2] (Bacteroides, 1211, 24 h, read-out: 24 Hr. MIC); 0.25 µg/mL (≈ 0.588 µM) in [3]; 0.25 µg/mL (≈ 0.588 µM) in test [4]; 4 µg/mL (≈ 9.41 µM) in [5]. The MIC is 0.125 µg/mL (≈ 0.294 µM) in test [6]; 1 µg/mL (≈ 2.35 µM) in test [7]; at most 0.5 µg/mL in test [8] (Peptostreptococcus anaerobius, 1428, 24 h, read-out: 24 Hr. MIC); 8 µg/mL (≈ 18.8 µM) in [9] (Collinsella aerofaciens, 1235, 24 h, read-out: 24 Hr. MIC); 0.25 µg/mL (≈ 0.588 µM) in test [10]; 0.125 µg/mL (≈ 0.294 µM) in test [11] (setting [24]). The MIC in test [12] (setting [24]) was 4 µg/mL (≈ 9.41 µM); in [13], at most 0.06 µg/mL; in test [14], 0.125 µg/mL (≈ 0.294 µM); in [15], at most 0.5 µg/mL; in [16] (setting [24]) it was at most 0.5 µg/mL; in test [17], 0.125 µg/mL (≈ 0.294 µM). For the same compound, the MIC in test [18] was at most 0.5 µg/mL; in test [19], at most 0.5 µg/mL; in test [20], at most 0.5 µg/mL; in test [21], 0.25 µg/mL (≈ 0.588 µM); in [22], at most 0.5 µg/mL; in test [23] (setting [24]), 0.125 µg/mL (≈ 0.294 µM).

With `Cn1nc(-c2ncc([N+](=O)[O-])n2C)c(C#N)c1NC(=O)C(=O)c1ccccc1` [Example 10, N-[4-cyano-1-methyl-3-(1-methyl-5-nitroimidazol-2-yl)pyrazol-5-yl]-2-phenylglyoxylamide], the “24 Hr. MIC” value in test [1] is at most 0.03 µg/mL; in the test on Peptococcus prevoti 1281 it was 16 µg/mL; in [2], 4 µg/mL; in test [8] it was 1.0 µg/mL; in test [9], 2 µg/mL; in [11], 0.06 µg/mL. The “24 Hr. MIC” value in [12] is at most 0.03 µg/mL; in [16], 2 µg/mL; in test [23], at most 0.03 µg/mL. Also, the MIC is at most 0.03 µg/mL in [3]; at most 0.03 µg/mL in test [4]; 1 µg/mL (≈ 2.64 µM) in test [5]; at most 0.03 µg/mL in test [6]; at most 0.03 µg/mL in test [7]; at most 0.03 µg/mL in test [10]. Besides, the MIC in [13] was at most 0.03 µg/mL; in [14] it was at most 0.03 µg/mL; in test [15] it was at most 0.03 µg/mL; in [17] it was at most 0.03 µg/mL; in test [18], over 64 µg/mL; in test [19] it was 64 µg/mL (≈ 169 µM). Moreover, the figures for the MIC in test [20], in test [21] and in test [22] were 0.5 µg/mL (≈ 1.32 µM), at most 0.03 µg/mL and 1 µg/mL (≈ 2.64 µM), respectively.

In the case of `CCOC(=O)C(=O)Nc1c(C#N)c(-c2ncc([N+](=O)[O-])n2C)nn1C` [Example 2, N-[4-Cyano-1-methyl-3-(1-methyl-5-nitroimidazol-2-yl)pyrazol-5-yl]oxamic acid, ethyl ester, sodium salt], the “24 Hr. MIC” value with Peptococcus prevoti 1281 (sodium salt) is 0.5 µg/mL; in [2] (sodium salt), at most 0.25 µg/mL; in test [4] (sodium salt), 0.125 µg/mL; in test [5] (agar dilution, 37° C., sodium salt), at most 0.25 µg/mL; in test [6] (sodium salt) it was 0.25 µg/mL; in test [7] (sodium salt), 0.25 µg/mL. Also, the “24 Hr. MIC” value was at most 0.25 µg/mL in test [8] (sodium salt); at most 0.25 µg/mL in test [9] (sodium salt); 0.25 µg/mL in [10] (sodium salt); 0.5 µg/mL in test [11] (sodium salt); 0.25 µg/mL in test [12] (sodium salt); 0.125 µg/mL in [13] (sodium salt). For the same compound, the “24 Hr. MIC” value in test [15] (sodium salt) was at most 0.25 µg/mL; in test [16] (sodium salt) it was at most 0.25 µg/mL; in test [17] (sodium salt) it was 0.25 µg/mL; in test [19] (sodium salt), over 64 µg/mL; in test [20] (sodium salt), at most 0.25 µg/mL; in [22] (sodium salt), at most 0.25 µg/mL. Moreover, the “24 Hr. MIC” value in test [23] (sodium salt) is 0.25 µg/mL. For the same compound, the “Survival Ratio” value in the test on Salmonella typhimurium is given as 2/5.
